Measurements as given in PMC11013143, “4-Chloroisocoumarins as Chlamydial Protease Inhibitors and Anti-Chlamydial Agents” (Molecules, 2024).

Legend:
CtHtrA = target: T1, CtHtrA (Chlamydia trachomatis serovar D, UniProt P18584); test: CtHtrA protease inhibition assay; format: biochemical; details: for IC50: IC50 against CtHtrA; for Relative Potency against CtHtrA: [IC50 of control]/[IC50 test compound]
T1 construct: made in house; host or cells: E. coli BL21(DE3), pET22b
Description: The inhibitory activity of compounds 2a–g against CtHtrA was evaluated. […] As these compounds are reportedly covalent inhibitors of serine proteases, a true IC50 is unable to be calculated. Instead, the residual activity of the protease is monitored over time in response to a range of compound concentrations, and an IC50 value is interpolated from a dose–response curve (see Figures S2–S4 and Tables S1 and S2). This IC50 value is then compared to a positive control (JO146 was used for 2a–g, and 2g was used for 6a–h), giving the ‘relative potency’. This is the established method for assessing CtHtrA inhibitory potency. […] This effect may be due to depth restrictions within the S1 subpocket, as kinetic studies on the rates of protease inhibition in HLE were reduced by larger C-3 alkoxy substituents. Chain branching (iso-propyl and sec-butyl substituents) increased the activity, resulting in a 1.4-fold increase for 2e over 2b and a 2.8-fold improvement for 2g over 2c.
CtHtrA was expressed using an procedure adapted from the literature. Recombinant E. coli BL21(DE3) pET22b was grown in LB media containing 100 ug/mL ampicillin to an OD600 of 0.5-0.6 in 5 × 400 mL batches at 37 °C. Isopropyl β-D-1-thioglactopyranoside (1 M, 400 µL, 1 mM final concentration) was added to each flask and incubated at 30 °C with shaking at 150 rpm for an additional 2.5 h. The culture was centrifuged at 4000× g for 15 min at 4 °C, and the cell pellet was harvested and resuspended in lysis buffer (50 mM phosphate, 10 mM imidazole, 500 mM NaCl, 0.1% Triton X-100, 10% glycerol). Lysozyme was added to the suspended cells and was sonicated in 15 cycles of 15 s, with one minute between cycles while maintaining 4 °C, and then centrifuged at 8000× g for 20 min to remove any debris, retaining the supernatant for protein purification.
TALON® metal affinity resin (Takara cat no. 635652, 5 mL) was added to each lysate tube and washed sequentially with lysis buffer (2 × 45 mL) and stringency buffer (4 × 45 mL) and then eluted with elution buffer (2 × 5 mL), allowing incubations at 4 °C for 20 min per wash, and centrifuging at 2500× g and 4 °C between washes to pellet the resin. The eluates were dialyzed in Tris buffer (pH 7.0, 50 mM, 4 L) with magnesium chloride (20 mM) at 4 °C five times over 24 h, with a minimum of three hours per dialysis change. Protein expression and isolation were confirmed with SDS-PAGE Coomassie stained gel, which was examined for the band at the correct size, and a BCA assay to confirm purified protein concentration prior to use.
CtHtrA was added to 25 wells in a black 96-well plate (40–80 µL, 10 µL increments), to which Tris-HCl buffer (50 mM, pH 7.0 with 20 mM MgCl2) was added to bring the total volume to 90 µL for 10 wells and 85 µL for the remaining 15. JO146 (10 µM, 5 µL) was added to 5 wells and JO146 (1 µM, 5 µL) was added to another 5 wells, with DMSO (5 µL) being added to the remaining 5 as a control. The plate was incubated at 37 °C for 10 min before substrate (MCA-ENLHLPLPIIFK-DNP, 10 µL, 1 mg/mL, 50% isopropanol in buffer) was added and analyzed in a TECAN Infinite Pro M200 plate reader with an excitation wavelength of 340 nm and fluorescence measured at 405 nm with four reads per well at 60 s intervals. A minimum volume of CtHtrA granting a fluorescence change of 300 min^−1 was used for subsequent assay.
The determined appropriate volume of CtHtrA in buffer was added to a 96-well non-transparent black plate and diluted to 85 µL with buffer solution. Drug or control (5 µL) at a maximum of 20% DMSO/80% buffer was added to the appropriate well with DMSO controls, and the plate was incubated for 10 min to allow activation by the protein. MCA-ENLHLPLPIIFK-DNP (Mimotopes, Australia, 1 mg/mL, 10 µL) was added and immediately monitored on a TECAN M200 Infinite plate reader at 37 °C every 60 s for 30 min, using the same wavelengths as for the activity evaluation. […]

HEp-2 cells = test: MTS cell viability assay, HEp-2 cells; format: cell-based, human; details: 24 h; for effect on HEp-2 cell viability: any tested concentration (31.25, 62.5, 125 µM)
Description: The cytotoxic effects of the 4-chloroisocoumarin compounds 2a–g and 6a–h (24 h) were tested against HEp-2 and McCoy B cells using the MTS cell viability assay. HEp-2 and McCoy B cells were selected, as these are routinely used for the cultivation of chlamydial species, and low cytotoxicity against host cells is required to evaluate the anti-chlamydial properties of a test compound [27].
HEp-2 (human epithelial type 2, CCL-23, ATCC®, Virginia, USA) or McCoy B (mouse fibroblast, CRL-1696, ATCC®) cells were grown to 80–100% confluence, and cell density was determined with a haemocytometer. Cells were then diluted to 1 × 10^5 cells/mL, and 100 µL was added to each well in a 96-well plate, with 3 wells left as controls. Cells were grown for 24 h, and the media was removed and then replaced with fresh media containing 0.1% DMSO and the drug for testing in triplicate. Drugs and cells were incubated for 24 h, and then 20 µL of MTS and PMS solution was added and then incubated for a further four hours. Absorbance was measured at 490 nm on a TECAN M200 Infinite plate reader and data were processed using Microsoft Excel^TM with the following equation to determine cell viability relative to DMSO controls. Cellviability%=AbsorbanceDrug−AbsorbanceDye/AbsorbanceDMSO−AbsorbanceDye

T1 sequence (P18584 17-497): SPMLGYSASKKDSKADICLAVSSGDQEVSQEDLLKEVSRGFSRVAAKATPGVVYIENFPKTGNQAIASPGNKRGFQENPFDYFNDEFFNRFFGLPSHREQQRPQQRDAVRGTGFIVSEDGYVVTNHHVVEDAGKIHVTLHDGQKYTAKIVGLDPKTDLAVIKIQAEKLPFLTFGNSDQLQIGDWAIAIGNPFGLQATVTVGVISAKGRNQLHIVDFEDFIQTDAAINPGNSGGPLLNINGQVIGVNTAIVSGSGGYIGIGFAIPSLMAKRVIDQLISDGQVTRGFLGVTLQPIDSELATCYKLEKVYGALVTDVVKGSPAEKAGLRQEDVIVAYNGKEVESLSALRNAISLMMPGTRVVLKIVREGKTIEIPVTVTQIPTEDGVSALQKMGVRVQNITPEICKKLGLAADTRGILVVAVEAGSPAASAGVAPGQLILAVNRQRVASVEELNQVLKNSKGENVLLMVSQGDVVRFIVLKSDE

For `CCC(C)Oc1oc(=O)c2ccccc2c1Cl` (racemic) [Compound 2g, (±)-3-sec-Butoxy-4-chloroisocoumarin], the “Relative Selectivity” value (CtHtrA; (relative CtHtrA potency)/(relative HLE potency)) was 14.6, the IC50 (CtHtrA; Table S2, Batch 2, control JO146) was 9.11 µM and the IC50 (CtHtrA; Table S2, Batch 3, control 2g) was 34.9 µM. For the same molecule, the IC50 (CtHtrA; Table S2, Batch 4, control 2g) was 32.3 µM, the IC50 (CtHtrA; Table S2, Batch 5, control 2g) was 28 µM and the “Relative Potency against CtHtrA” value (CtHtrA; control JO146) was 6.58.

`CCC(C)Oc1oc(=O)c2cc(N)ccc2c1Cl` (racemic) [Compound 6a, (±)-7-Amino-4-chloro-3-sec-butoxyisocoumarin] was tested, and the “effect on HEp-2 cell viability / cytotoxicity” value (HEp-2 cells; 125 µM) was “reduced cell viability slightly”, the IC50 (CtHtrA; Table S2, Batch 3, control 2g) was 107 µM and the “Relative Potency against CtHtrA” value (CtHtrA; control 2g) was 0.326.

With `CCC(C)Oc1oc(=O)c2cc(N(C)C)ccc2c1Cl` (racemic) [Compound 6b, (±)-7-(Dimethylamino)-3-sec-butoxy-4-chloroisocoumarin] the “effect on HEp-2 cell viability” value (HEp-2 cells) was “not found to significantly impact cytotoxicity”, the IC50 (CtHtrA; Table S2, Batch 3, control 2g) was 309 µM and the “Relative Potency against CtHtrA” value (CtHtrA; control 2g) was 0.113.

With `CCC(C)Oc1oc(=O)c2cc(NC(C)=O)ccc2c1Cl` (racemic) [Compound 6c, (±)-N-(4-Chloro-1-oxo-3-sec-butoxy-isochromen-7-yl)acetamide] the “effect on HEp-2 cell viability” value (HEp-2 cells) was “did not significantly affect cell viability”, the IC50 (CtHtrA; Table S2, Batch 3, control 2g) was 221 µM and the “Relative Potency against CtHtrA” value (CtHtrA; control 2g) was 0.158.

For `CCC(C)Oc1oc(=O)c2cc(NC(=O)C(F)(F)F)ccc2c1Cl` (racemic) [Compound 6d, (±)-N-(4-chloro-1-oxo-3-sec-butoxy-isochromen-7-yl)-2,2,2-trifluoroacetamide], the “effect on HEp-2 cell viability” value (HEp-2 cells) was “did not significantly affect cell viability”, the “IC50 against CtHtrA” value (CtHtrA; Table S2, Batch 4, control 2g) was “Not active” and the “Relative Potency against CtHtrA” value (CtHtrA; control 2g) was <0.001.

For `CCC(C)Oc1oc(=O)c2cc(I)ccc2c1Cl` (racemic) [Compound 6e, (±)-3-sec-Butoxy-4-chloro-7-iodoisocoumarin], the “cytotoxicity against HEp-2 cells” value (HEp-2 cells; 62.5 µM) was “retained some cytotoxicity”, the “IC50 against CtHtrA” value (CtHtrA; Table S2, Batch 4, control 2g) was “Not active” and the “Relative Potency against CtHtrA” value (CtHtrA; control 2g) was <0.001.

For `CCC(C)Oc1oc(=O)c2cc(OC)ccc2c1Cl` (racemic) [Compound 6h, (±)-7-Methoxy-3-sec-butoxy-4-chloroisocoumarin], the “effect on HEp-2 cell viability” value (HEp-2 cells) was “did not significantly affect cell viability”, the IC50 (CtHtrA; Table S2, Batch 5, control 2g) was 152 µM and the “Relative Potency against CtHtrA” value (CtHtrA; control 2g) was 0.184.
